Some targets named below: DRB5*0101 (Homo sapiens, UniProt P01903+Q30154); DRB4*0101 (Homo sapiens, UniProt P01903+P13762, G164S); DRB3*0101 (Homo sapiens, UniProt P01903+P79483).
What all share (assay): biochemical
Type in all cases: binding

Each structure is given as a SMILES string.

A word on the IC50: it is the concentration at which inhibition is half-maximal. A lower IC50 goes with higher potency. For `CC[C@H](C)[C@H](NC(=O)[C@@H]1CCCN1C(=O)[C@H](CCC(=O)O)NC(=O)[C@H](CC(C)C)NC(=O)[C@@H](N)CS)C(=O)N[C@@H](CCC(=O)O)C(=O)NCC(=O)N[C@@H](CCCCN)C(=O)N[C@H](C(=O)N[C@H](C(=O)N[C@@H](CCC(N)=O)C(=O)N[C@@H](Cc1ccc(O)cc1)C(=O)N[C@@H](CCC(=O)O)C(=O)N[C@@H](CC(N)=O)C(=O)N[C@@H](CC(C)C)C(=O)O)C(C)C)C(C)C` [Envelope 121-135], the IC50 against DRB5*0101 is 13300 nM; against DRB4*0101, 1100 nM.
Turning to `CC[C@H](C)[C@H](NC(=O)CNC(=O)[C@@H](NC(=O)[C@@H](NC(=O)[C@@H](NC(=O)[C@H](CC(N)=O)NC(=O)[C@H](CO)NC(=O)[C@H](CCC(=O)O)NC(=O)CNC(=O)[C@H](Cc1ccccc1)NC(=O)[C@@H]1CCCN1C(=O)[C@@H]1CCCN1C(=O)[C@H](CCC(=O)O)NC(=O)[C@H](C)NC(=O)[C@@H](N)CCC(=O)O)[C@@H](C)CC)C(C)C)[C@@H](C)CC)C(=O)O` [Envelope 366-380], the IC50 on DRB3*0101 turned out to be 3240 nM; at DRB5*0101, 12500 nM; on DRB4*0101, 3810 nM.
As to `CC[C@H](C)[C@H](N)C(=O)N[C@H](C(=O)N[C@H](C(=O)NCC(=O)N[C@H](C(=O)NCC(=O)N[C@@H](CC(=O)O)C(=O)N[C@@H](CC(N)=O)C(=O)N[C@@H](C)C(=O)N[C@@H](CC(C)C)C(=O)N[C@@H](CCCCN)C(=O)N[C@H](C(=O)N[C@@H](CC(N)=O)C(=O)N[C@@H](Cc1c[nH]c2ccccc12)C(=O)N[C@@H](Cc1ccc(O)cc1)C(=O)O)[C@@H](C)CC)[C@@H](C)CC)[C@@H](C)CC)C(C)C` [Envelope 376-390], the figures for the concentration for half-maximal inhibition (IC50) at DRB3*0101, against DRB5*0101 and against DRB4*0101 were 15 nM, 1250 nM and 1240 nM, respectively.
As to `CC[C@H](C)[C@H](N)C(=O)NCC(=O)N[C@@H](CCCCN)C(=O)N[C@@H](CCSC)C(=O)N[C@@H](Cc1ccccc1)C(=O)N[C@@H](CCC(=O)O)C(=O)N[C@@H](C)C(=O)N[C@H](C(=O)N[C@@H](C)C(=O)N[C@@H](CCCNC(=N)N)C(=O)NCC(=O)N[C@@H](C)C(=O)N[C@@H](CCCNC(=N)N)C(=O)N[C@@H](CCCNC(=N)N)C(=O)N[C@@H](CCSC)C(=O)O)[C@@H](C)O` [Envelope 396-410], the results for the IC50 against DRB3*0101, on DRB5*0101 and at DRB4*0101 were 424 nM, 27 nM and 3610 nM, respectively.
`CC(C)C[C@H](NC(=O)[C@H](CCCNC(=N)N)NC(=O)[C@H](CCCCN)NC(=O)[C@@H]1CCCN1C(=O)[C@H](CO)NC(=O)[C@H](CC(=O)O)NC(=O)[C@H](C)NC(=O)[C@H](CCC(N)=O)NC(=O)[C@H](Cc1ccccc1)NC(=O)[C@H](CCCCN)NC(=O)[C@H](Cc1ccc(O)cc1)NC(=O)[C@H](CCC(N)=O)NC(=O)[C@H](CCC(=O)O)NC(=O)[C@@H](N)[C@@H](C)O)C(=O)N[C@@H](C)C(=O)O` [NS1 29-43]: the results for the IC50 against DRB3*0101, against DRB5*0101 and against DRB4*0101 were 11 nM, 23 nM and 14400 nM, respectively.
Turning to `CC[C@H](C)[C@H](NC(=O)[C@H](CCC(N)=O)NC(=O)[C@@H](N)CCCCN)C(=O)N[C@@H](C)C(=O)N[C@@H](CC(N)=O)C(=O)N[C@@H](CCC(=O)O)C(=O)N[C@@H](CC(C)C)C(=O)N[C@@H](CC(N)=O)C(=O)N[C@@H](Cc1ccc(O)cc1)C(=O)N[C@H](C(=O)N[C@@H](CC(C)C)C(=O)N[C@@H](Cc1c[nH]c2ccccc12)C(=O)N[C@@H](CCC(=O)O)C(=O)N[C@@H](CC(N)=O)C(=O)N[C@@H](CC(N)=O)C(=O)O)[C@@H](C)CC` [NS1 69-83], the results for the IC50 against DRB3*0101, at DRB5*0101 and on DRB4*0101 were 50 nM, 2380 nM and 608 nM, respectively.
On to `CC[C@H](C)[C@H](N)C(=O)N[C@H](C(=O)NCC(=O)N[C@H](C(=O)N[C@@H](CC(C)C)C(=O)N[C@@H](CCC(=O)O)C(=O)N[C@@H](CCC(N)=O)C(=O)NCC(=O)N[C@@H](CCCCN)C(=O)N[C@@H](CCCNC(=N)N)C(=O)N[C@H](C(=O)N[C@@H](CC(C)C)C(=O)N[C@H](C(=O)N1CCC[C@H]1C(=O)N[C@@H](CCC(N)=O)C(=O)O)[C@@H](C)O)[C@@H](C)O)C(C)C)[C@@H](C)CC` [NS1 93-107], for which the IC50 against DRB3*0101 worked out at 4350 nM; against DRB5*0101, 3070 nM; at DRB4*0101, 3700 nM.
Turning to `CC[C@H](C)[C@H](NC(=O)[C@H](CC(C)C)NC(=O)[C@H](CO)NC(=O)[C@H](C)NC(=O)[C@H](CCCCN)NC(=O)[C@H](CCC(=O)O)NC(=O)[C@H](CC(C)C)NC(=O)[C@H](CCCCN)NC(=O)[C@H](Cc1c[nH]c2ccccc12)NC(=O)[C@@H](N)CO)C(=O)N[C@@H](CCC(=O)O)C(=O)N[C@H](C(=O)N[C@@H](CCCCN)C(=O)N[C@H](C(=O)N[C@@H](CS)C(=O)O)[C@@H](C)O)C(C)C` [NS1 209-223], the results for the IC50 on DRB5*0101 and against DRB4*0101 were 1180 nM and 5020 nM, respectively.
Regarding `CC[C@H](C)[C@H](NC(=O)[C@H](CCSC)NC(=O)[C@H](CC(=O)O)NC(=O)[C@H](CO)NC(=O)[C@H](CCC(=O)O)NC(=O)[C@H](CC(C)C)NC(=O)[C@@H](NC(=O)CNC(=O)[C@H](CC(N)=O)NC(=O)[C@@H](N)CO)C(C)C)C(=O)N[C@H](C(=O)N1CCC[C@H]1C(=O)N[C@@H](CCCCN)C(=O)N[C@@H](CO)C(=O)N[C@@H](CC(C)C)C(=O)O)[C@@H](C)CC` [NS1 233-247], the IC50 on DRB3*0101 was 159 nM; against DRB5*0101 it was 4070 nM; at DRB4*0101, 3870 nM.
With `CC[C@H](C)[C@H](NC(=O)[C@@H](N)CCSC)C(=O)N[C@H](C(=O)N1CCC[C@H]1C(=O)N[C@@H](CCCCN)C(=O)N[C@@H](CO)C(=O)N[C@@H](CC(C)C)C(=O)N[C@@H](C)C(=O)NCC(=O)N1CCC[C@H]1C(=O)N[C@H](C(=O)N[C@@H](CO)C(=O)N[C@@H](CCC(N)=O)C(=O)N[C@@H](Cc1c[nH]cn1)C(=O)N[C@@H](CC(N)=O)C(=O)O)[C@@H](C)CC)[C@@H](C)CC` [NS1 241-255], the IC50 against DRB5*0101 is 3200 nM; at DRB4*0101 it was 1090 nM.
Turning to `CC(C)C[C@H](NC(=O)[C@H](CCCCN)NC(=O)CNC(=O)[C@H](CC(C)C)NC(=O)[C@@H](N)Cc1c[nH]cn1)C(=O)N[C@@H](CCC(=O)O)C(=O)N[C@@H](CC(C)C)C(=O)N[C@@H](CC(=O)O)C(=O)N[C@@H](Cc1ccccc1)C(=O)N[C@@H](CC(N)=O)C(=O)N[C@@H](Cc1ccc(O)cc1)C(=O)N[C@@H](CS)C(=O)N[C@@H](CCC(=O)O)C(=O)NCC(=O)N[C@H](C(=O)O)[C@@H](C)O` [NS1 269-283], the results for the IC50 against DRB3*0101, against DRB5*0101 and at DRB4*0101 were 71 nM, 9470 nM and 85 nM, respectively.
`CC(C)C[C@H](NC(=O)[C@H](CCCCN)NC(=O)CNC(=O)[C@H](CO)NC(=O)[C@@H](NC(=O)[C@@H](NC(=O)[C@@H](NC(=O)[C@@H](NC(=O)[C@H](CCCNC(=N)N)NC(=O)[C@H](CC(C)C)NC(=O)[C@H](CO)NC(=O)[C@@H]1CCCN1C(=O)CNC(=O)[C@H](CCCNC(=N)N)NC(=O)[C@@H](N)[C@@H](C)O)[C@@H](C)O)[C@@H](C)O)[C@@H](C)O)C(C)C)C(=O)O` [NS1 293-307]: the values for the IC50 against DRB3*0101, at DRB5*0101 and on DRB4*0101 were 2280 nM, 2610 nM and 793 nM, respectively.
`CSCC[C@H](NC(=O)[C@H](Cc1ccc(O)cc1)NC(=O)[C@H](CCCNC(=N)N)NC(=O)[C@H](CC(C)C)NC(=O)[C@@H]1CCCN1C(=O)[C@@H]1CCCN1C(=O)[C@H](CC(C)C)NC(=O)[C@@H](NC(=O)[C@H](CS)NC(=O)[C@H](CO)NC(=O)[C@H](CCCNC(=N)N)NC(=O)[C@@H](N)CS)[C@@H](C)O)C(=O)NCC(=O)N[C@@H](CCC(=O)O)C(=O)N[C@@H](CC(=O)O)C(=O)O` [NS1 313-327]: the IC50 amounted to 2270 nM against DRB5*0101 and 503 nM on DRB4*0101.
For `CC[C@H](C)[C@H](NC(=O)[C@H](CC(C)C)NC(=O)[C@H](CC(=O)O)NC(=O)[C@H](CCCCN)NC(=O)[C@@H](N)CCCCN)C(=O)N[C@@H](CO)C(=O)N[C@@H](Cc1ccc(O)cc1)C(=O)NCC(=O)NCC(=O)NCC(=O)N[C@@H](Cc1c[nH]c2ccccc12)C(=O)N[C@@H](CCCNC(=N)N)C(=O)N[C@@H](CC(C)C)C(=O)N[C@@H](CO)C(=O)N[C@@H](C)C(=O)O` [NS3 73-87], the IC50 came to 71 nM on DRB5*0101 and 3470 nM at DRB4*0101.
Taken in the same sequence, the figures for `CSCC[C@H](NC(=O)[C@H](C)NC(=O)[C@H](CCSC)NC(=O)[C@H](CCC(N)=O)NC(=O)[C@@H](NC(=O)[C@@H](NC(=O)[C@@H](N)CCSC)C(C)C)[C@@H](C)O)C(=O)N[C@H](C(=O)N[C@@H](CC(=O)O)C(=O)N[C@H](C(=O)N[C@H](C(=O)N1CCC[C@H]1C(=O)N[C@@H](Cc1ccccc1)C(=O)NCC(=O)N[C@@H](CCC(N)=O)C(=O)N[C@@H](CCC(N)=O)C(=O)N[C@@H](CCCNC(=N)N)C(=O)O)[C@@H](C)O)[C@@H](C)O)[C@@H](C)O` [NS5 336-352] were 10400 nM and 747 nM.
As to `CC[C@H](C)[C@H](NC(=O)[C@H](Cc1ccc(O)cc1)NC(=O)CNC(=O)[C@H](CC(C)C)NC(=O)[C@H](CCCCN)NC(=O)[C@H](Cc1c[nH]cn1)NC(=O)[C@@H](N)CC(C)C)C(=O)N[C@@H](CC(C)C)C(=O)N[C@@H](CCCNC(=N)N)C(=O)N[C@@H](CC(=O)O)C(=O)N[C@H](C(=O)N[C@@H](CO)C(=O)N[C@@H](CCCCN)C(=O)N[C@H](C(=O)N1CCC[C@H]1C(=O)NCC(=O)NCC(=O)O)[C@@H](C)CC)[C@@H](C)CC` [NS5 511-527], the IC50 against DRB5*0101 was 611 nM; at DRB4*0101, 57 nM.
On to `CC[C@H](C)[C@H](NC(=O)[C@H](CC(C)C)NC(=O)[C@H](CCC(=O)O)NC(=O)[C@@H](N)Cc1c[nH]cn1)C(=O)N[C@@H](CCSC)C(=O)N[C@@H](CCCCN)C(=O)N[C@@H](CC(=O)O)C(=O)NCC(=O)N[C@@H](CCCNC(=N)N)C(=O)N[C@@H](CCCCN)C(=O)N[C@@H](CC(C)C)C(=O)N[C@H](C(=O)N[C@H](C(=O)N1CCC[C@H]1C(=O)N[C@@H](CS)C(=O)N[C@@H](CCCNC(=N)N)C(=O)O)C(C)C)C(C)C` [NS5 714-729], for which the IC50 turned out to be 245 nM against DRB5*0101 and 4020 nM at DRB4*0101.
